Reference: a melting point compilation (Tetko et al.; mined from patent text by program, amines drawn as free bases though some values may be those of a salt)

melting point [°C] | SMILES
153 to 155 | CC1Cc2ccccc2C(=O)C1n1ccnc1 (configuration not stated)
211 to 215 | O=c1ccc(C(c2ccc(Cl)cc2)c2ccc(Cl)cc2)c[nH]1
249 to 251 | Cc1n[nH]c(=O)c(-c2c(F)cc(F)cc2F)c1-c1cccs1
178 to 179 | O=C(O)C(=NO)c1ccc(OCCOc2ccc3ccccc3c2)cc1
89 to 91 | O=C(O)CCCOc1cccc(CCCCCCOc2ccc3c(c2CCCc2ccccc2)CCCC3=O)c1CCC(=O)O
286 to 288 | COc1cc(NC2=C(Cl)C(=O)c3ccccc3C2=O)ccc1S(=O)(=O)Nc1cccc(C)c1
55 to 56 | COCCCOc1cc(C[C@@H](C(=O)N2C(=O)OC[C@H]2Cc2ccccc2)C(C)C)ccc1OC
150 | CC(C)C(NC(=O)c1ccccc1)C(O)C(F)(F)F (configuration not stated)
188 | O=C(CN1CCCC1)Nc1ccc(-c2cc(-c3c[nH]nc3-c3ccccn3)ccn2)cc1
242 to 244 | Cn1cc(C(=O)NCc2ccc(Cl)cc2)c(=O)c2cc(CO)cc(I)c21
131 to 133 | COc1cc2c(cc1F)C1(CO2)C(=O)N(CC2CCCCO2)c2ccccc21 (configuration not stated)
111 to 113 | S=C(NCc1cccc2ccccc12)N1CCc2c([nH]c3ccccc23)C1c1ccc2c(c1)OCO2 (configuration not stated)
124 to 125 | CC(C)OCCNC(=O)c1ccn2nc(-c3ccccc3)c(-c3ccc(=O)n(C(C)C)n3)c2c1
222 | CCOCN1C2=C(C(=O)CCC2)C(c2cccc([N+](=O)[O-])c2)C2=C1CCCC2=O
217 to 218 | CN(C)c1nc2sc3c(NCc4ccccn4)ncnc3c2c2c1COC(C)(C)C2
> 300 | O=C1c2ccccc2C(=O)c2cc(Br)c(Br)cc21
175 to 176 | O=c1c(CCc2cccs2)cc2cccnc2n1-c1cccc([N+](=O)[O-])c1
208 to 210 | COC(=O)C(=C\c1c(OC)cc(OC)cc1OC)/C(=C\c1ccccc1)C(=O)O
151 to 153 | O=c1nc(-c2cccc(CN3CCC(Cc4ccccc4)CC3)n2)sc2ccccc12
100 to 101 | CCc1nc(-c2ccc(OCCCn3cnc4ccccc43)cc2)no1
141 to 142 | Cc1c(CCl)oc2ccc([N+](=O)[O-])cc12
171 to 175 | COc1cc(OC)nc(NC(=O)NS(=O)(=O)c2ccccc2Cc2nnc(SC)s2)n1
136 to 149 | COc1ccc(N(CCN2CCC(C(=O)c3ccc(F)cc3)CC2)C(=O)c2ccc(C#N)cc2)cc1
144 to 145 | O=C(O)C(=O)N1CCC(Oc2ccc(Cl)cc2)CC1

melting point [°C] | SMILES
145 to 147 | COc1cc(NC(=O)N2CCOCN2)c(F)cc1Cl
218 to 220 | N#CC1=C(C#N)Sc2nc3cc(C#N)ccc3nc2S1
> 300 | N=C(N)c1ccc(-c2ccc(-c3ccc(-c4ccc(C(=N)N)cn4)o3)o2)nc1
150 to 152 | Cn1cc(S(C)=O)c(=O)c2ccsc21 (configuration not stated)
220 to 222 | COC(=O)COc1ccc(C(=O)NNC(=O)c2ccc(C#N)cc2)cc1
333 to 335 | O=c1c2c(CCc3ccccc3[N+](=O)[O-])n[nH]c2c2cccnc2n1-c1ccccc1
120 | CC(=O)Nc1ccc(C(=O)c2cc(-c3cccnc3)c(N3CCOCC3)s2)cc1
132 to 134 | ClC1(Cl)C(Cl)(Cl)C1(Cl)c1ccccn1
152 to 154 | Oc1ccc(-c2cc3cc(F)cc(F)c3o2)cc1
157 to 158 | Oc1cccc2oc(Cc3cccc(C(F)(F)F)c3)nc12
75 to 77 | Clc1nc2ccccc2c2c(CCN3CCN(Cc4ccccc4)CC3)n(-c3ccccc3)nc12
102 to 103 | COc1ccc(C2=NN(C3CCCCCC3)C(=O)[C@H]3CC=CC[C@@H]23)cc1OCC1CC1 (relative stereo)
117 | O=C(c1cccs1)c1cnn2c(-c3cccc(-c4nnn(CCN5CCCCC5)n4)c3)ccnc12
82 to 83 | Nc1c(NCCCO)cccc1OCc1ccccc1
73 to 74.5 | Cc1c([N+](=O)[O-])ccc(OCc2ccccc2)c1Cl
70 to 75 | CCOC(=O)C(CC=Cc1ccccc1)(NC(C)=O)C(=O)OCC
205 to 207 | CC(C)(C)c1csc(-c2cc3cc(CSc4ccccc4C(=O)O)ccc3o2)n1
238 to 242 | Cc1ccc(Br)c(Cl)c1NS(=O)(=O)c1ccccc1C(=O)O
106 to 108 | O=[N+]([O-])c1ccc(F)c(-c2ccc(CO)cc2)c1
210 to 214 | COc1cc2c(cc1OC)-c1c(-c3ccccc3)c(-c3cc(C)c(O)c(C)c3)c(C)n1CC2
237 to 238 | CCCN1C(=O)C2(c3ccc([N+](=O)[O-])cc3)CC(c3ccc([N+](=O)[O-])cc3)(C2)C1=O
198 to 200 | O=c1c2ncn3c2n(c(=O)n1Cc1ccccc1)CC=C3c1cccc(C(F)(F)F)c1
97 to 100 | Cn1nc(C(C)(C)c2ccc(Cl)cc2)nc1-c1c(F)cccc1Cl
100 to 101 | COC(=O)c1c(C(F)(F)F)noc1NS(=O)(=O)c1ccccc1

melting point [°C] | SMILES
108 | N#CCC[C@H]1CC[C@@H](c2ccc(F)cc2)N1S(=O)(=O)c1ccc(Cl)cc1 (racemic)
118 | N#Cc1ccc(Oc2ccccc2N)cc1C#N
204 to 205 | COc1ccc2c(=O)[nH]c(-c3ccc(OCCNC(C)C)c(-c4ccc(S(C)(=O)=O)cc4)n3)nc2c1
121 to 124 | CNc1c(C/C=C(\C)CCC(=O)O)c(OC)c(C)c2c1C(=O)OC2
112 to 113 | NC(=O)Cc1ccc2ccn(C3CCN(CCc4ccc(F)cc4)CC3)c2c1
181 | CNC(=S)C1(c2cc(C)ccn2)CCCS1 (configuration not stated)
85 to 87 | O=S(=O)(Nc1cccc(CCOCc2sc3ccccc3c2Cl)c1)C(F)(F)F
112 to 113 | COc1cccc(-c2cc(C#N)c(SC)[nH]2)c1
140 | COc1ccc(-c2cc(=O)n(CCc3ccccc3)nc2-c2ccc(OC)cc2)cc1
180 to 184 | CCCNC(=O)C(C#N)=NNc1ccccc1-c1ccccc1
71 to 72 | Cc1ccc(-n2ccc(C=O)c2)cc1
114 | CC(C)(C)c1ccccc1N1CCC(N)=N1
98 to 100 | O=C1c2ccccc2S(=O)(=O)N1CCCCN1CCC2(CC1)Cc1ccccc1O2
72 to 73 | FC(F)(F)c1cccc(Oc2ccnc(-n3ccc(C(F)(F)F)n3)n2)c1
248 | CC1(C)CC(O)C(C)(C)c2cc(/C=C/c3ccc(C(=O)O)cc3)c(Cn3cccn3)cc21 (configuration not stated)
238 to 239 | CN(C)CCC1CCC2(CC1)Nc1cc(Cl)c(S(N)(=O)=O)cc1S(=O)(=O)N2 (configuration not stated)
108 to 110 | CSCC(=O)c1cc(C(C)(C)C)c(O)c(C(C)(C)C)c1
191 to 193 | Cc1cc(OCCCNCCC(N)=O)ccc1Cc1c(OC2OC(CO)C(O)C(O)C2O)n[nH]c1C(C)C (configuration not stated)
148 to 153 | CO[C@@H]1C=C2C=C3C(=C(C)C(=O)N3C)C[C@]2(C)[C@@H](C)[C@H]1OC(=O)c1cccs1
167 to 176 | CCN1C(=O)C(NC(=O)C(F)(F)F)CCc2c1ccc(Nc1ncc(Cl)c(N[C@H]3[C@@H](C(N)=O)[C@@H]4C=C[C@H]3C4)n1)c2OC (some centres not stated)
110 to 111 | CCSc1ncnc2c(N3CCCCC3)nc(Cl)nc12
198 | CSc1nc(O)cc(=O)n1C
49 to 50 | CCC(O)(C#CC(=O)c1ccc(SC)cc1)CC
145 to 148 | C=C(c1ccc(-n2ccnc2)nc1)C(O)(Cn1cncn1)c1ccc(F)cc1F (configuration not stated)

melting point [°C] | SMILES
231 to 233 | Clc1ccc2[nH]c(=Nc3ccccc3)n3nc(-c4ccco4)nc3c2c1
160 | CC(C)(C)CNc1nc(C#N)nc2ccc(OCc3ccccn3)cc12
151 to 153 | CC(CC(C)C1CCC2C3C(O)CC4CC(O)CCC4(C)C3CC(O)C12C)C(=O)O (configuration not stated)
50 to 52 | COc1cc(C)c([N+](=O)[O-])c(C)c1
131 to 133 | COC(=O)C(=C/c1ccccc1)/C(=C\c1cc(OC)c(OC)c(OC)c1)C(=O)O
230 to 234 | CON1CCC2(CC1)NC(=O)NC2=O
151 to 152 | Cc1oc(-c2ccccc2F)nc1CCOc1ccc(CN(O)C(N)=O)cc1
85 to 88 | O=C1COCC(c2ccc(F)c(F)c2)N1C(=O)NCCCN1CCC(O)(c2ccccc2)CC1 (configuration not stated)
204 to 205 | CSc1nc(-c2ccccc2)n(-c2ccc(F)cc2)c(=O)c1C#N
141 to 142 | Cc1ccc(Cc2cnc(NCCCCc3ncc([N+](=O)[O-])cc3C)[nH]c2=O)cn1
88 to 90 | CCSc1nc2c(C)ccnc2n1Cc1ccc(-n2cc(Cl)cc2-c2nnn[nH]2)cc1
72 to 74 | COP(C)(=O)C1CC(c2ccccc2)=NO1 (configuration not stated)
145 | COc1cc(Nc2nccc(-c3cccc(Br)c3)n2)cc(OC)c1OC
88 to 90 | C=CC(C)(C)C(O)C(Oc1ccc(Cl)cc1)n1ccnc1 (configuration not stated)
169 to 171 | O=c1c(CCCCBr)c(O)c2cccnc2n1-c1ccccc1
167 to 169 | O=C(NCCn1ccnc1)c1cc2cc(Cl)ccc2[nH]1
108 to 113 | CCCSc1nc(N)c2ncn(C3C=CCCC3)c2n1 (configuration not stated)
307 | Nc1ncc(-c2ccc(=O)[nH]n2)c(-c2ccc(F)c(F)c2)n1
124 | N#Cc1ccc(CC23CCCN2C(=O)N(Cc2cc(Cl)cc(Cl)c2)C3=O)cc1 (configuration not stated)
109 to 110 | IC#CCOCc1cccnc1
174 to 176 | CCNc1nc(Cl)nc(Nc2ccc(OC)cc2)n1
139 to 141 | CC(C)(C)c1ccc(CCC(CC2CCCCC2)OC(=O)Oc2ccc(C(=O)O)cc2)cc1NC(=O)CC1c2ccccc2Oc2ccccc21 (configuration not stated)

SMILES | melting point [°C]
CC(=O)OC1CC2(C)C(=O)CCC2C2CCC3=CC(=O)C=CC3(C)C12F (configuration not stated) | 177 to 178
CN1CCC2(CC1)OC(=O)c1ccccc12 | 147 to 148
O=C(O)Cc1cccc(NC(=O)NC2C(=O)N(CC(=O)N3CCCC3)c3ccccc3N(c3ccccc3F)C2=O)c1 (configuration not stated) | 197 to 199
